From US20100311717A1, “METHODS AND COMPOSITIONS FOR RETARDING WEIGHT GAIN ASSOCIATED WITH USE OF ATYPICAL ANTIPSYCHOTIC DRUGS” (priority 2007, published 2010)
Like-named read-outs stand apart in the source and are kept apart here. Each block holds one molecule with its values, some of them ahead of it.

Columns and labels:
[1] = macroprolactinomas; cited from earlier work
[2] = in vivo; cited from earlier work
D3 = D3 (Homo sapiens, UniProt P35462); conditions: cited from earlier work
[3] = tested on: cytochrome p450 (CPY) system; conditions: cited from earlier work
[4] = Parkinson's disease, 3.5-4.5 mg/day; decreased when the dose was lowered; cited from earlier work
[5] = bipolar II, 6 weeks, n=10; cited from earlier work
[6] = in vivo; cited from earlier work; remark: listed apart in the source
[7] = cited from earlier work
[8] = not given; remark: listed apart in the source
[9] = in vivo; cited from earlier work; remark: listed apart in the source
[10] = Clinical cases: appetite / hunger; conditions: Example 10, olanzapine 2.5 mg HS
[11] = Clinical cases: galactorrhea; conditions: Example 2, risperidone 2 mg per day
[12] = Example 12, approximately two months on pramipexole, same as before starting
[13] = Example 9, pramipexole 0.25 mg AM & HS with quetiapine

Sequence of D3 (P35462 whole entry): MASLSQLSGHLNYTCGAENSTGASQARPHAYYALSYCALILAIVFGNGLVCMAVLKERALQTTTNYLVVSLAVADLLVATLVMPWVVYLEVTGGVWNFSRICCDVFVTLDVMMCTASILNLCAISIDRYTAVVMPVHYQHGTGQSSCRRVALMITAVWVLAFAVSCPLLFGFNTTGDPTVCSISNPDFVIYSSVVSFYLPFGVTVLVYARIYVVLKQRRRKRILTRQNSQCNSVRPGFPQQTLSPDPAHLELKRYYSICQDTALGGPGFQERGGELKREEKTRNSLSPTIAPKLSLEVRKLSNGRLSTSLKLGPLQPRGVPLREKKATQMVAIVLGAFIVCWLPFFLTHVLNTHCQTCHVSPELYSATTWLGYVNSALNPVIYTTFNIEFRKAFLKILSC

SMILES: CCCN1CC(NS(=O)(=O)N(CC)CC)CC2Cc3c(O)cccc3CC21 (centres unmarked) [Quinagolide, quinagolide]
patients with significant weight loss [1]: 11 of 12
half-life [2]: 24 h

SMILES: CCCN(CCC)CCc1cccc2c1CC(=O)N2 [ropinirole]
D3 affinity relative to pramipexole (D3): less D3 affinity
interaction with the cytochrome p450 system [3]: p450 interactions

SMILES: CCCN[C@H]1CCc2nc(N)sc2C1 [pramipexole]
effect on weight [4]: caused weight gain
subjects who developed hypomanic symptoms [5]: One
excreted unchanged in the urine [6]: 90%
interaction with the cytochrome p450 system [3]: does not interact
triglycerides after pramipexole (Example 7, pre-pramipexole 2.88 mmol/L): 2.4 mmol/L
cholesterol after pramipexole (Example 7, pre-pramipexole 6.6 mmol/L): 5.6 mmol/L
cholesterol [12]: 7.5 mmol/L
fasting blood sugar (FBS) [12]: 6.6 mmol/L
triglycerides [12]: 3.6 mmol/L
increase in anxiety ([7]; early in the dose escalation): 18 of 38
nausea reported ([7]; fibromyalgia, 14 week study): 79%
weight lost ([8]; Example 1, pramipexole 0.25 mg twice per day with olanzapine 20 mg per day): 11 pounds
weight after treatment ([8]; Example 1, pramipexole 0.25 mg twice per day with olanzapine 20 mg per day, from 187 pounds): 176 pounds
weight maintained at ([8]; Example 3, olanzapine 10 mg per day with pramipexole up to 0.75 mg per day, prednisone 5 mg per day added): 202 pounds
weight after restarting pramipexole ([8]; Example 4, 0.25 mg twice daily, within the next two weeks): 174 pounds
weight maintained at ([8]; Example 4, olanzapine 5 mg per day with pramipexole 0.25 mg twice per day): 168 pounds
weight after discontinuing pramipexole ([8]; Example 4, within one week, on olanzapine 5 mg per day): 181 pounds
weight after treatment ([8]; Example 5, pramipexole increased to 0.25 mg per day, after 6 weeks): 154 pounds
weight after discontinuing pramipexole ([8]; Example 6): 250 pounds
weight after treatment ([8]; Example 6, pramipexole 0.25 mg per day, from 247 pounds): 244 pounds
weight after treatment ([8]; Example 7, pramipexole 0.25 mg per day, later): 212 pounds
weight after treatment ([8]; Example 7, pramipexole increased to 0.25 mg per day, in two weeks): 214 pounds
weight maintained at ([8]; Example 8, olanzapine 15 mg per day with pramipexole 0.25 mg TID): 259 pounds
weight decreased by [8, 13]: 3 pounds
weight maintained at [8, 13]: 157 pounds
weight gained ([8]; Example 11, pramipexole 0.25 mg AM & HS for 3 weeks, with quetiapine): 5 pounds
weight after treatment ([8]; Example 12, pramipexole 0.25 mg twice per day): 172 pounds
weight after treatment ([8]; Example 13, pramipexole up to 0.25 mg twice per day, from 132 pounds): 127 pounds
weight lost ([8]; Example 13, pramipexole up to 0.25 mg twice per day, in three weeks): 5 pounds
weight maintained at ([8]; Example 14, olanzapine 10 mg per day with pramipexole 0.25 mg twice per day, several months): 312 pounds

SMILES: CC(C)C[C@H]1C(=O)N2CCC[C@H]2[C@]2(O)O[C@](NC(=O)[C@@H]3C=C4c5cccc6[nH]c(Br)c(c56)C[C@H]4N(C)C3)(C(C)C)C(=O)N12 [bromocriptine]
abdominal cramps [9]: 4%
constipation [9]: 3%
diarrhea [9]: 3%
dizziness [9]: 17%
drowsiness [9]: 3%
fatigue [9]: 7%
headache [9]: 19%
incidence of adverse effects [9]: 69%
lightheadedness [9]: 5%
nasal congestion [9]: 3%
nausea [9]: 49%
patients in whom therapy was discontinued because of adverse effects [9]: approximately 5%
vomiting [9]: 5%

weight after treatment ([8]; human, in vivo): 185 pounds
SMILES: C[C@]12C=CC(=O)C=C1CC[C@@H]1[C@@H]2C(=O)C[C@@]2(C)[C@H]1CC[C@]2(O)C(=O)CO [prednisone]

SMILES: Cc1cc2c(s1)Nc1ccccc1N=C2N1CCN(C)CC1 [olanzapine]
appetite [10]: marked increase in appetite

SMILES: Cc1nc2n(c(=O)c1CCN1CCC(c3noc4cc(F)ccc34)CC1)CCCC2 [risperidone]
galactorrhea [11]: developed galactorrhea
